# Laboratory results: US9556165B2 (priority 2012, dated 2017)
# Where two headings read alike, the source gives them in different places.
# Experiments:
# Assay type in all cases: cell-based
# E. coli ATCC25922 = test: MIC determination, broth microdilution (CLSI); conditions: for MIC: Escherichia coli, ATCC25922, strain 1
# K. pneumoniae 60 = test: MIC determination, broth microdilution (CLSI); conditions: for MIC: Klebsiella pneumoniae, 60, strain 2
# E. cloacae 34654 = test: MIC determination, broth microdilution (CLSI); conditions: for MIC: Enterobacter cloacae, 34654, strain 3
# C. freundii K21/3034 = test: MIC determination, broth microdilution (CLSI); conditions: for MIC: Citrobacter freundii, K21/3034, strain 4
# M. morganii 126/3048 = test: MIC determination, broth microdilution (CLSI); conditions: for MIC: Morganella morganii, 126/3048, strain 5
# P. aeruginosa PAO1 = test: MIC determination, broth microdilution (CLSI); conditions: for MIC: Pseudomonas aeruginosa, PAO1, strain 6
# [1] = tested on: P. aeruginosa 2297 (AmpC wt); test: MIC determination, broth microdilution (CLSI); conditions: for MIC: Pseudomonas aeruginosa, strain 7
# [2] = tested on: P. aeruginosa 2297-con (AmpC derepressed); test: MIC determination, broth microdilution (CLSI); conditions: for MIC: Pseudomonas aeruginosa, read-out: strain 8 MIC, strain 8
# A. baumannii ATCC15308 = test: MIC determination, broth microdilution (CLSI); conditions: for MIC: Acinetobacter baumannii, ATCC15308, strain 9
# S. maltophilia ICB7569 = test: MIC determination, broth microdilution (CLSI); conditions: for MIC: Stenotrophomonas maltophilia, ICB7569, strain 10
# S. aureus 133 = test: MIC determination, broth microdilution (CLSI)
# H. influenzae ATCC 49247 = test: MIC determination, broth microdilution (CLSI); conditions: broth microdilution; for MIC: Haemophilus influenzae, ATCC49247, strain 12, read-out: MIC strain 12 (H. influenzae ATCC 49247)
# S. pneumoniae 113 = test: MIC determination, broth microdilution (CLSI); conditions: broth microdilution; for MIC: Streptococcus pneumoniae, 113, strain 13, read-out: MIC strain 13 (S. pneumoniae 113)
# B. fragilis 6688 = test: MIC determination, broth microdilution (CLSI); conditions: broth microdilution; for MIC: Bacteroides fragilis, 6688, strain 15, read-out: MIC strain 15 (B. fragilis 6688)
# C. perfringens DSM756 = test: microbe, parasite or virus in culture; conditions: broth microdilution; for MIC: Clostridium perfringens, DSM756, read-out: MIC strain 16 (C. perfringens DSM756), strain 16
# E. coli J62 = test: MIC determination, broth microdilution (CLSI); conditions: broth microdilution; for MIC: Escherichia coli, J62, strain 17, read-out: MIC strain 17 (E. coli J62)
# E. coli J62-TEM-3 = test: MIC determination, broth microdilution (CLSI); conditions: broth microdilution; for MIC: Escherichia coli, J62TEM3, read-out: MIC strain 18 (E. coli J62-TEM-3), strain 18
# Bacteria = test: MIC determination in combination with β-lactamase inhibitors (constant 4 μg/mL)
# [3] = Staphylococcus aureus, 133, strain 11, read-out: strain 11 MIC
# [4] = Staphylococcus aureus, 133, strain 14, broth microdilution, read-out: MIC strain 14 (S. aureus 133)
SMILES,strain 1 MIC (E. coli ATCC25922),strain 2 MIC (K. pneumoniae 60),strain 3 MIC (E. cloacae 34654) [µg/mL],strain 4 MIC (C. freundii K21/3034),strain 5 MIC (M. morganii 126/3048) [µg/mL],strain 6 MIC (P. aeruginosa PAO1) [µg/mL],strain 7 MIC [1] [µg/mL],strain 8 MIC [2] [µg/mL],strain 9 MIC (A. baumannii ATCC15308) [µg/mL],strain 10 MIC (S. maltophilia ICB7569) [µg/mL],MIC (S. aureus 133; [3]) [µg/mL],MIC (B. fragilis 6688) [µg/mL],MIC (C. perfringens DSM756) [µg/mL],MIC strain 17 (E. coli J62) (E. coli J62) [µg/mL],MIC (E. coli J62-TEM-3) [µg/mL],MIC strain 19 (E. coli J62-TEM-3 + 4 μg/mL clavulanic acid) (Bacteria),MIC strain 20 (E. coli J62-TEM-3 + 4 μg/mL sulbactam) (Bacteria),MIC strain 21 (E. coli J62-TEM-3 + 4 μg/mL tazobactam) (Bacteria),MIC (H. influenzae ATCC 49247) [µg/mL],MIC (S. pneumoniae 113) [µg/mL],also measured
"CC1(C)[C@H](NC(=O)/C(=N\OC(COc2ccc(C(=N)NCCN)cc2)C(=O)O)c2csc(N)n2)C(=O)N1OS(=O)(=O)O (mixture of isomers) [Example 44A, (2R and 2S)-3-{4-[N-(2-Aminoethyl)carbamimidoyl]phenoxy}-2-({[(1Z)-1-(2-amino-1,3-thiazol-4-yl)-2-{[(3S)-2,2-dimethyl-4-oxo-1-(sulfooxy)azetidin-3-yl]amino}-2-oxoethylidene]amino}oxy)propanoic acid]",≦0.063 mg/L,≦0.063 mg/L,0.125,≦0.063 mg/L,0.125,1,2,1,2,2,≤ 0.063,8,1,0.125,2,≦0.063 mg/L,≦0.063 mg/L,≦0.063 mg/L,,,MIC (S. aureus 133; [4]): 32 µg/mL; MIC strain 12 (H. influenzae ATCC 49247) (H. influenzae ATCC 49247): ≦0.063 mg/L; MIC strain 13 (S. pneumoniae 113) (S. pneumoniae 113): 0.5 µg/mL
"CC1(C)[C@H](NC(=O)/C(=N\OC(CO)COc2ccc(C(=N)N)cc2)c2csc(N)n2)C(=O)N1OS(=O)(=O)O (mixture of isomers) [Example 45B, (2Z)-2-(2-Amino-1,3-thiazol-4-yl)-2-({[(2R and 2S)-1-(4-carbamimidoylphenoxy)-3-hydroxypropan-2-yl]oxy}imino)-N-[(3S)-2,2-dimethyl-4-oxo-1-(sulfooxy)azetidin-3-yl]ethanamide]",2 µg/mL,2 µg/mL,4,1 µg/mL,4,16,32,32,4,32,≤ 0.063,4,2,4,,2 µg/mL,4 µg/mL,4 µg/mL,0.5,0.125,"MIC strain 14 (S. aureus 133) (S. aureus 133; strain 14, broth microdilution): 16 µg/mL; MIC strain 18 (E. coli J62-TEM-3) (E. coli J62-TEM-3): 16 µg/mL"
"CC1(C)[C@H](NC(=O)/C(=N\OC(COc2ccc(C(=N)N)cc2)CC(=O)O)c2csc(N)n2)C(=O)N1OS(=O)(=O)O (mixture of isomers) [Example 46, 3-({[(1Z)-1-(2-Amino-1,3-thiazol-4-yl)-2-{[(3S)-2,2-dimethyl-4-oxo-1-(sulfooxy)azetidin-3-yl]amino}-2-oxoethylidene]amino}oxy)-4-(4-carbamimidoylphenoxy)butanoic acid]",,,,,,,,,,,,32,4,,16,1 µg/mL,1 µg/mL,1 µg/mL,0.25,1,MIC (E. coli ATCC25922): 2 µg/mL; MIC (K. pneumoniae 60): 1 µg/mL; MIC (E. cloacae 34654): 2 µg/mL; MIC (C. freundii K21/3034): 1 µg/mL; MIC (M. morganii 126/3048): 1 µg/mL; MIC (P. aeruginosa PAO1): 8 µg/mL; MIC [1]: 32 µg/mL; MIC [2]: 32 µg/mL; MIC (A. baumannii ATCC15308): 16 µg/mL; MIC (S. maltophilia ICB7569): 8 µg/mL; MIC (E. coli J62): 2 µg/mL
"CC1(C)[C@H](NC(=O)/C(=N\OCC(Oc2ccc(C(=N)N)cc2)C(=O)O)c2csc(N)n2)C(=O)N1OS(=O)(=O)O (single isomer, unassigned) [Example 87B]",0.5 µg/mL,0.5 µg/mL,1,0.5 µg/mL,0.25,16,,,16,,,,,1,,0.5 µg/mL,1 µg/mL,2 µg/mL,,,MIC [1]: 32 µg/mL; MIC [2]: 32 µg/mL; MIC (S. maltophilia ICB7569): 16 µg/mL; strain 11 MIC (S. aureus 133; strain 11): ≦0.063 mg/L; MIC strain 12 (H. influenzae ATCC 49247) (H. influenzae ATCC 49247): 0.125 µg/mL; MIC strain 13 (S. pneumoniae 113) (S. pneumoniae 113): 1 µg/mL; MIC strain 15 (B. fragilis 6688) (B. fragilis 6688; strain 15): 16 µg/mL; MIC strain 16 (C. perfringens DSM756) (C. perfringens DSM756; strain 16): 16 µg/mL; MIC strain 18 (E. coli J62-TEM-3) (E. coli J62-TEM-3): 32 µg/mL
"CC1(C)[C@H](NC(=O)/C(=N\O[C@@H](COc2ccc(C(=N)NC3CC3N)cc2)C(=O)O)c2csc(N)n2)C(=O)N1OS(=O)(=O)O (single isomer, unassigned) [Example 100A]",0.125 µg/mL,0.25 µg/mL,0.125,0.125 µg/mL,,2,4,4,8,8,≤ 0.063,8,2,0.25,32,0.125 µg/mL,0.125 µg/mL,0.25 µg/mL,≤ 0.063,0.5,MIC (M. morganii 126/3048): ≤ 0.063 µg/mL
"CC1(C)[C@H](NC(=O)/C(=N\OC(COc2ccc(C(=N)NC3CCCNC3)cc2)C(=O)O)c2csc(N)n2)C(=O)N1OS(=O)(=O)O (stereo in doubt) [Example 89, (2R)-2-({[(1Z)-1-(2-Amino-1,3-thiazol-4-yl)-2-{[(3S)-2,2-dimethyl-4-oxo-1-(sulfooxy)-azetidin-3-yl]amino}-2-oxoethylidene]amino}oxy)-3-(4-{N-[(3R)-piperidin-3-yl]carbamimidoyl}phenoxy)propanoic acid]",,,,,,,,,,,,8,1,,4,≦0.063 mg/L,≦0.063 mg/L,0.125 µg/mL,≤ 0.063,0.5,MIC (E. coli ATCC25922): 0.125 µg/mL; MIC (K. pneumoniae 60): 0.25 µg/mL; MIC (E. cloacae 34654): 0.125 µg/mL; MIC (C. freundii K21/3034): 0.125 µg/mL; MIC (M. morganii 126/3048): ≤ 0.063 µg/mL; MIC (P. aeruginosa PAO1): 1 µg/mL; MIC [1]: 1 µg/mL; MIC [2]: 1 µg/mL; MIC (A. baumannii ATCC15308): 1 µg/mL; MIC (S. maltophilia ICB7569): 4 µg/mL; MIC (S. aureus 133; [4]): 32 µg/mL; MIC (E. coli J62): 0.125 µg/mL
